Laboratory results taken from patent US20240033256A1, “INHIBITORS OF POSITIVE STRAND RNA VIRUSES” (priority 2020, published 2024).

Test system: SARS-CoV-2
Assay: SARS-CoV-2 cytopathic effect (CPE) by visualization in infected Vero E6 cells
Assay type: cell-based
Details: Severe acute respiratory syndrome coronavirus 2, Vero C1008, read-out: SARS-CoV-2 inhibition EC50, CPE
Description: Compounds 1-3 were examined for their inhibitory activity against SARS-CoV-2 in Vero E6 cells. Cytopathic effects (“CPE”) of SARS-CoV-2 infected Vero E6 cells, with treatment of compounds in 2-fold dilution at a series of 12 concentrations, were visualized. EC50 and CC50 values were calculated.

| Compound | EC50 |
| --- | --- |
| COc1cc2c3c(c4cc(OC)c(OC)cc4c2cc1OC)CN1CCC[C@H]1C3 [Compound 1, (13as)-2,3,6,7-tetramethoxy-9,11,12,13,13a,14-hexahydrophenanthro[9,10-f] indolizine] | 78 nM |
| CCN1Cc2c(c3ccc(OC)cc3c3cc(OC)c(OC)cc23)C(O)C1 (stereo not drawn) [Compound 2] | 2.5 nM |

Test system: Dengue virus type 2
Assay: Dengue virus type 2 IFA assay (E protein) in Vero E6 cells
Assay type: cell-based
Details: Dengue virus, Vero C1008, 120 h, MOI 0.02, 5 days at 33° C, read-out: DV2 EC50
Description: (§1) Compounds 1-9 were evaluated for their inhibitory activities against Dengue virus, another single positive-stranded RNA virus belonging to genus of flavivirus, using an IFA assay that targeted the Dengue virus Envelope (“E”) protein.
(§2) Vero E6 cells (BCRC #60476, Bioresource Collection and Research Center, Hsinchu, Taiwan) were treated with one of Compounds 1-9 at a predetermined concentration for 1 hour at 37° C. The cells were infected with Dengue virus type 1 (“DV1”, ATCC VR-1856, American Type Culture Collection, Manassas, VA, USA) at MOI=0.002 or Dengue virus type 2 (“DV2”, ATCC VR-1584, American Type Culture Collection, Manassas, VA, USA) at MOI=0.02, both for 5 days at 33° C. They were then fixed with 10% formalin and permeabilized with methanol. Subsequently, the cells were stained with anti-flavivirus E antibody (ATCC HB-112, American Type Culture Collection, Manassas, VA, USA) and anti-mouse IgG-FITC (MP Biomedicals, Irvine, CA, USA). The nuclei of the cells were counter stained with DAPI (Thermo Fisher Scientific, MA, USA). The E protein expression was measured by using a high-content image analysis system (Molecular Devices). The cell viability was determined by MTS. EC50 and CC50 were calculated by Prism software.

| Compound | EC50 |
| --- | --- |
| COc1cc2c3c(c4cc(OC)c(OC)cc4c2cc1OC)CN1CCC[C@H]1C3 [Compound 1, (13as)-2,3,6,7-tetramethoxy-9,11,12,13,13a,14-hexahydrophenanthro[9,10-f] indolizine] | 32.5 nM |
| CCN1Cc2c(c3ccc(OC)cc3c3cc(OC)c(OC)cc23)C(O)C1 (stereo not drawn) [Compound 2] | 4.7 nM |

Test system: Zika virus
Assay: Zika virus IFA assay (E protein) in Vero E6 cells
Assay type: cell-based
Details: Zika virus, Vero C1008, 49 h, Vero E6 cells; MOI 0.02; 49 hours; read-out: EC50 (Zika virus)
Description: Compounds 1-9 were evaluated for their inhibitory activities against Zika virus using an IFA assay, which targeted Zika virus Envelope (“E”) protein.
(§3) Vero E6 cells (BCRC #60476, Bioresource Collection and Research Center, Hsinchu, Taiwan) were treated with one of Compounds 1-9 at a predetermined concentration for 1 hour at 37° C. The cells were adsorbed with Zika virus (ATCC VR-1843, American Type Culture Collection, Manassas, VA, USA) at MOI=0.02 for 49 hours at 37° C. The cells were fixed with 10% formalin, permeabilized with methanol. The cells were stained with anti-flavivirus E antibody (ATCC HB-112, American Type Culture Collection, Manassas, VA, USA) and anti-mouse IgG-FITC (MP Biomedicals, Irvine, CA, USA). The nuclei were counter stained with DAPI (in blue) (Thermo Fisher Scientific, MA, USA). The E protein expression was measured using a high-content image analysis system (Molecular Devices). The cell viability was determined by MTS. Both EC50 and CC50 were calculated by Prism software.

| Compound | EC50 |
| --- | --- |
| CCN1Cc2c(c3ccc(OC)cc3c3cc(OC)c(OC)cc23)C(O)C1 (stereo not drawn) [Compound 2] | 15.3 nM |

Same assay, conditions: Zika virus, Vero C1008, 49 h, read-out: EC50 (Zika virus)

| Compound | EC50 |
| --- | --- |
| COc1cc2c3c(c4cc(OC)c(OC)cc4c2cc1OC)CN1CCC[C@H]1C3 [Compound 1, (13as)-2,3,6,7-tetramethoxy-9,11,12,13,13a,14-hexahydrophenanthro[9,10-f] indolizine] | 61.4 nM |

Test system: HCoV-OC43
Assay: HCoV-OC43 IFA assay (N protein) in HCT-8 cells
Assay type: cell-based
Details: Betacoronavirus 1, OC43, HCT-8, read-out: EC50 (HCoV-OC43)

| Compound | EC50 |
| --- | --- |
| COc1cc2c3c(c4cc(OC)c(OC)cc4c2cc1OC)CN1CCC[C@H]1C3 [Compound 1, (13as)-2,3,6,7-tetramethoxy-9,11,12,13,13a,14-hexahydrophenanthro[9,10-f] indolizine] | 68 ± 2.7 nM |

Same assay, conditions: Betacoronavirus 1, OC43; HCT-8 cells; MOI 0.05; means ± S.D. from three independent experiments; read-out: EC50 (HCoV-OC43)

| Compound | EC50 |
| --- | --- |
| CCN1Cc2c(c3ccc(OC)cc3c3cc(OC)c(OC)cc23)C(O)C1 (stereo not drawn) [Compound 2] | 16.4 ± 4.7 nM |

Test system: SARS-CoV-2
Assay: SARS-CoV-2 immunofluorescence assay (IFA), N protein expression in Vero E6 cells
Assay type: cell-based
Details: Severe acute respiratory syndrome coronavirus 2, Vero C1008, 48 h; Vero E6 cells; MOI 0.01; 2 days; run 1; read-out: SARS-CoV-2 inhibition EC50, IFA-1
Description: Vero E6 cells derived from BCRC #60476 (Bioresource Collection and Research Center, Hsinchu, Taiwan) were treated with each compound at an indicated concentration for 1 hour at 37° C. The cells were adsorbed with SARS-CoV-2 viruses (TCDC #4, National Taiwan University, Taipei, Taiwan, ROC) at multiplicity of infection (“MOI”) of 0.01 for 1 hour at 37° C. After virus adsorption, the cells were washed with phosphate-buffered saline (“PBS”). A fresh medium containing the compound was added at an indicated concentration. The resultant mixture was incubated for 2 days. The cells were fixed with 4% paraformaldehyde and permeabilized with a 0.5% Triton™ X-100 detergent solution (Thermo Fisher Scientific, Waltham, MA). Subsequently, they were stained with an anti-SARS-CoV-2 N protein antibody and anti-human IgG-488 (in green). The nuclei of the cells were counter stained with 4′,6-diamidino-2-phenylindole (“DAPI”, Thermo Fisher Scientific, MA, USA). The N protein expression was measured using a high-content image analysis system (Molecular Devices, San Jose, CA). The cell viability was determined by Cell Counting Kit-8 (Sigma-Aldrich, St. Louis, MO) EC50 and CC50 values were calculated by Prism software. […] Both EC50 and CC50 are measured in molar units, e.g., mol/L (“M”), μmol/L (“μM”), and nmol/L (“nM”).

| Compound | EC50 |
| --- | --- |
| COc1cc2c3c(c4cc(OC)c(OC)cc4c2cc1OC)CN1CCC[C@H]1C3 [Compound 1, (13as)-2,3,6,7-tetramethoxy-9,11,12,13,13a,14-hexahydrophenanthro[9,10-f] indolizine] | 64 nM |
| CCN1Cc2c(c3ccc(OC)cc3c3cc(OC)c(OC)cc23)C(O)C1 (stereo not drawn) [Compound 2] | 9.1 nM |

Same assay, conditions: Severe acute respiratory syndrome coronavirus 2, Vero C1008, 48 h; Vero E6 cells; MOI 0.01; 2 days; run 2; read-out: SARS-CoV-2 inhibition EC50, IFA-2

| Compound | EC50 |
| --- | --- |
| COc1cc2c3c(c4cc(OC)c(OC)cc4c2cc1OC)CN1CCC[C@H]1C3 [Compound 1, (13as)-2,3,6,7-tetramethoxy-9,11,12,13,13a,14-hexahydrophenanthro[9,10-f] indolizine] | 76.8 nM |
| CCN1Cc2c(c3ccc(OC)cc3c3cc(OC)c(OC)cc23)C(O)C1 (stereo not drawn) [Compound 2] | 13.9 nM |

Same assay, conditions: Severe acute respiratory syndrome coronavirus 2, Vero C1008; IFA; range over Compounds 1, 2 and 3; read-out: EC50 against SARS-CoV-2 (range given)

| Compound | EC50 |
| --- | --- |
| COc1cc2c3c(c4cc(OC)c(OC)cc4c2cc1OC)CN1CCC[C@H]1C3 [Compound 1, (13as)-2,3,6,7-tetramethoxy-9,11,12,13,13a,14-hexahydrophenanthro[9,10-f] indolizine] | 9 to 77 nM |
| CCN1Cc2c(c3ccc(OC)cc3c3cc(OC)c(OC)cc23)C(O)C1 (stereo not drawn) [Compound 2] | 9 to 77 nM |

Test system: Dengue virus type 1
Assay: Dengue virus type 1 IFA assay (E protein) in Vero E6 cells
Assay type: cell-based
Details: Dengue virus, Vero C1008, 120 h, MOI 0.002, 5 days at 33° C, read-out: DV1 EC50
Description: as §1, §2

| Compound | EC50 |
| --- | --- |
| COc1cc2c3c(c4cc(OC)c(OC)cc4c2cc1OC)CN1CCC[C@H]1C3 [Compound 1, (13as)-2,3,6,7-tetramethoxy-9,11,12,13,13a,14-hexahydrophenanthro[9,10-f] indolizine] | 18.4 nM |
| CCN1Cc2c(c3ccc(OC)cc3c3cc(OC)c(OC)cc23)C(O)C1 (stereo not drawn) [Compound 2] | 4.3 nM |

Test system: not listed separately
Assay: HCT-8 cell viability (MTS)
Details: human, HCT-8 cells

| Compound | CC50 |
| --- | --- |
| COc1cc2c3c(c4cc(OC)c(OC)cc4c2cc1OC)CN1CCC[C@H]1C3 [Compound 1, (13as)-2,3,6,7-tetramethoxy-9,11,12,13,13a,14-hexahydrophenanthro[9,10-f] indolizine] | > 10000 nM |
| CCN1Cc2c(c3ccc(OC)cc3c3cc(OC)c(OC)cc23)C(O)C1 (stereo not drawn) [Compound 2] | > 10000 nM |

Test system: HCoV-229E
Assay: HCoV-229E cytopathic effect / end point assay by TCID50 with crystal violet in MRC5 cells
Details: Human coronavirus 229E, MRC5, read-out: EC50 (HCoV-229E)
Description: An end point assay by TCID50 was performed. Crystal violet was used to stain live cells to determine the EC50 of each compound. Further, CC50 and selective index were calculated.

| Compound | EC50 |
| --- | --- |
| COc1cc2c3c(c4cc(OC)c(OC)cc4c2cc1OC)CN1CCC[C@H]1C3 [Compound 1, (13as)-2,3,6,7-tetramethoxy-9,11,12,13,13a,14-hexahydrophenanthro[9,10-f] indolizine] | 71.4 ± 13.2 nM |
| CCN1Cc2c(c3ccc(OC)cc3c3cc(OC)c(OC)cc23)C(O)C1 (stereo not drawn) [Compound 2] | 6.5 ± 1 nM |

Test system: not listed separately
Assay: Vero E6 cell viability by MTS (Dengue study)
Assay type: cell-based
Details: African green monkey, Vero E6 cells
Description: as §2

| Compound | CC50 |
| --- | --- |
| COc1cc2c3c(c4cc(OC)c(OC)cc4c2cc1OC)CN1CCC[C@H]1C3 [Compound 1, (13as)-2,3,6,7-tetramethoxy-9,11,12,13,13a,14-hexahydrophenanthro[9,10-f] indolizine] | > 5000 nM |
| CCN1Cc2c(c3ccc(OC)cc3c3cc(OC)c(OC)cc23)C(O)C1 (stereo not drawn) [Compound 2] | > 5000 nM |

Test system: not listed separately
Assay: Vero E6 cell viability by MTS (Zika study)
Assay type: cell-based
Details: African green monkey, Vero E6 cells
Description: as §3
Their cytotoxic effects were also determined by the MTS assay described above using Vero E6 cells.

| Compound | CC50 |
| --- | --- |
| COc1cc2c3c(c4cc(OC)c(OC)cc4c2cc1OC)CN1CCC[C@H]1C3 [Compound 1, (13as)-2,3,6,7-tetramethoxy-9,11,12,13,13a,14-hexahydrophenanthro[9,10-f] indolizine] | > 5000 nM |
| CCN1Cc2c(c3ccc(OC)cc3c3cc(OC)c(OC)cc23)C(O)C1 (stereo not drawn) [Compound 2] | > 5000 nM |

Test system: SARS-CoV-2
Assay: SARS-CoV-2 plaque assay in Vero E6 cells
Assay type: cell-based
Details: Severe acute respiratory syndrome coronavirus 2, Vero C1008; Vero E6 cells; run 1; read-out: SARS-CoV-2 inhibition EC50, Plaque assay-1
Description: The assay was performed in triplicate in 24-well tissue culture plates. Vero E6 cells were seeded in Dulbecco's modified Eagle's medium (“DMEM”) with 10% Fetal Bovine Serum (“FBS”, Biological Industries, Kibbutz, Israel) and antibiotics one day before infection. SARS-CoV-2 viruses were added to the cell monolayer and allowed to sit for 1 hour at 37° C. After viruses were removed, the cell monolayer was washed once with PBS before covering with media containing agarose or methylcellulose for 5-7 days. The cells were fixed with 3.7% formaldehyde overnight followed by removal of overlay media. They were then stained with crystal violet to count the plaque-forming units (“PFU”). The percentage of inhibition was calculated as [1−(VD/VC)]×100%, where VD and VC refer to the virus titer in the presence and absence of a test compound, respectively.

| Compound | EC50 |
| --- | --- |
| CCN1Cc2c(c3ccc(OC)cc3c3cc(OC)c(OC)cc23)C(O)C1 (stereo not drawn) [Compound 2] | 10.8 nM |

Same assay, conditions: Severe acute respiratory syndrome coronavirus 2, Vero C1008; Vero E6 cells; run 2; read-out: SARS-CoV-2 inhibition EC50, Plaque assay-2

| Compound | EC50 |
| --- | --- |
| CCN1Cc2c(c3ccc(OC)cc3c3cc(OC)c(OC)cc23)C(O)C1 (stereo not drawn) [Compound 2] | 13.8 nM |

Same assay, conditions: Severe acute respiratory syndrome coronavirus 2, Vero C1008; infected Vero E6 cells; four measurements; read-out: EC50 against SARS-CoV-2, plaque assay, all four measurements

| Compound | EC50 |
| --- | --- |
| CCN1Cc2c(c3ccc(OC)cc3c3cc(OC)c(OC)cc23)C(O)C1 (stereo not drawn) [Compound 2] | 11 to 14 nM |
